Measured values published in patent publication US20260250318A1, “COMPOSITIONS AND METHODS FOR CROSSING THE BLOOD BRAIN BARRIER” (VOYAGER THERAPEUTICS, INC., priority 2022, published 2026).

System: brains, heart, liver, muscle, and DRG of the NHPs
Experiment: Maturation of TTM-001 and TTM-002 capsids, NGS enrichment in NHP tissues
Assay type: in vivo
Conditions: NGS, relative to AAV9 control; for Fold Enrichment relative to AAV9, Liver RNA (NHP): TTM-001 and TTM-002 matured AAV capsid variants
Source text: This Example describes maturation of the AAV9 capsid variants, TTM-001 (SEQ ID NO: 981 (amino acid) and 983 (DNA), comprising SEQ ID NO: 941 (encoded by SEQ ID NO: 942)) and TTM-002 (SEQ ID NO: 982 (amino acid) and 984 (DNA), comprising SEQ ID NO: […] (encoded by SEQ ID NO: 944)) in NHPs to further enhance their transduction and biodistribution in the central nervous system as well as other tissues, and evolve the AAV capsid variants to provide further cross-species compatibility. Two approaches were used to mature the TTM-001 and TTM-002 capsid sequences in order to randomize and mutate within and around the peptide insert comprised within loop IV of the capsid variant. […] In the first maturation approach, sets of three contiguous amino acids were randomized across the mutagenesis region in the TTM-001 and TTM-002 sequences, which spanned from position 450 to position 466, numbered according to SEQ ID NO: 981 and 982. In the second maturation approach, mutagenic primers were used to introduce point mutations at a low frequency, scattered across the mutagenesis region in the TTM-001 and TTM-002 sequences ranging from position 449 to position 466, numbered according to SEQ ID NO: 981 and 982. AAV capsid variants arising from each maturation approach for TTM-001 and TTM-002 were pooled together, for subsequent testing and characterization in NHPs.
The library of pooled matured AAV capsid variants generated using the first maturation approach and the second maturation approach for the TTM-001 and TTM-002 AAV capsid variants were injected into two NHPs. […] Following RNA recovery and RT-PCR amplification, a systematic NGS enrichment analysis was performed to calculate the fold enrichment ratio relative to an AAV9 control, and the peptides comprised within the variants were identified.
Following the RNA recovery and NGS analysis from the second maturation approach, approximately 680,000 capsid variants were identified. The 680,000 matured capsid variants were then filtered based on samples with a raw virus count greater than 10 and a coefficient of variance (CV) of less than 1, which was calculated for each peptide across the brain samples taken from the two NHPs. […] Using this filtering criteria, this led to approximately 64,000 matured capsid variants.

Row | Sequence | Fold Enrichment relative to AAV9, DRG (NHP) [fold] | Fold Enrichment relative to AAV9, Brain (NHP) [fold] | Fold Enrichment relative to AAV9, Heart (NHP) [fold] | Fold Enrichment relative to AAV9, Liver DNA (NHP) [fold] | Fold Enrichment relative to AAV9, Liver RNA (NHP) [fold] | Fold Enrichment relative to AAV9, Muscle (NHP) [fold]
1 | KTIFDCGSPHSKAQNQQT | 0.000 | 0.000 | 0.000 | 1.602 | 27.844 | 0.000
2 | KTIKRYGSPHSKAQNQQT | 0.000 | 0.000 | 0.000 | 2.022 | 11.461 | 0.000
3 | KTINALRSPHSKAQNQQT | 0.000 | 0.000 | 0.000 | 1.655 | 20.053 | 0.000
4 | KTINCRTSPHSKAQNQQT | 0.000 | 0.000 | 0.000 | 1.117 | 28.301 | 0.000
5 | KTINFTRSPHSKAQNQQT | 0.000 | 0.000 | 0.000 | 3.751 | 14.908 | 0.000
6 | KTINGAYSPHRKAQNQQT | 0.000 | 0.000 | 0.000 | 1.283 | 40.969 | 0.000
7 | KTINGLDSPHRSRQNQQT | 0.000 | 0.000 | 0.000 | 0.321 | 26.403 | 0.000
8 | KTINGLVSPHRKAQNQQT | 0.000 | 0.000 | 0.000 | 2.739 | 23.417 | 0.000
9 | KTINGPWSPHRKAQNQQT | 0.000 | 0.000 | 0.000 | 0.434 | 12.103 | 0.000
10 | KTINGRPSPHGKAQNQQT | 0.000 | 0.000 | 0.000 | 0.705 | 14.442 | 0.000
11 | KTINGRRSPHGKAQNQQT | 0.000 | 0.000 | 0.000 | 3.259 | 37.728 | 0.000
